The record followed here is ChEMBL document CHEMBL1127814, “Preferred orientations in the binding of 4'-hydroxyacetanilide (acetaminophen) to cytochrome P450 1A1 and 2B1 isoforms as determined by 13C- and 15N-NMR relaxation studies” (J Med Chem, 1994).

One test concerns the target T1, Cytochrome P450 2B1 (Rattus norvegicus, UniProt P00176).
T1 sequence (P00176 whole entry): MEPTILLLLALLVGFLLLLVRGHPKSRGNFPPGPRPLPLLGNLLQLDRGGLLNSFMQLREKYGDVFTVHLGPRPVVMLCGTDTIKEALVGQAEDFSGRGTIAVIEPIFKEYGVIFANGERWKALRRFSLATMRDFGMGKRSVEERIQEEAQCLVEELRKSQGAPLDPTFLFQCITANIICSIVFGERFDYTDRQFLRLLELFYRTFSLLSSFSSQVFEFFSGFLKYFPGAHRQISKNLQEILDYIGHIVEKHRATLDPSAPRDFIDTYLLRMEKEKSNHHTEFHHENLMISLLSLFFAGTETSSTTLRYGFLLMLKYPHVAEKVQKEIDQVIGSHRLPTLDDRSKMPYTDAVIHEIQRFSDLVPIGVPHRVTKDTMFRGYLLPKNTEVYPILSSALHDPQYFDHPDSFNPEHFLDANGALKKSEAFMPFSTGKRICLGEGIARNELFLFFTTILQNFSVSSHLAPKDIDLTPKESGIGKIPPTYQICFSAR
Put plainly: Spectral dissociation constant for rat liver Cytochrome P450 2B1. It counts as ADME. Conditions: read-out: Ks.

The target in another test is T2, Cytochrome P450 1A1 (Rattus norvegicus, UniProt P00185).
T2 sequence (P00185 whole entry): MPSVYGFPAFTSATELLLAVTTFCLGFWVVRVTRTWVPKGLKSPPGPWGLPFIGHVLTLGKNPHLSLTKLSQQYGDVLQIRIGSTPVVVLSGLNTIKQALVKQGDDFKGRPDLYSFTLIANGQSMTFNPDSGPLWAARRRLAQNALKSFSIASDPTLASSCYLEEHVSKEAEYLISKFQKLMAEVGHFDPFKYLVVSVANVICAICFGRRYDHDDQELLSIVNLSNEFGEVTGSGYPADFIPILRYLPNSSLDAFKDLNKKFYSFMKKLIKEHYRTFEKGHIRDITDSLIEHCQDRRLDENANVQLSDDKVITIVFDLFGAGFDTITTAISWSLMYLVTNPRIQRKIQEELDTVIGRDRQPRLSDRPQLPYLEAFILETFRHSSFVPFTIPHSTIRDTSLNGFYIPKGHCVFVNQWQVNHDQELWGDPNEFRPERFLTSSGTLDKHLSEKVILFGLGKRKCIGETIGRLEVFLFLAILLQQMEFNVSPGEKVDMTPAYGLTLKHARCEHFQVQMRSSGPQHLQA
Put plainly: Spectral dissociation constant for rat liver Cytochrome P450 1A1. It counts as ADME. Conditions: read-out: Ks.

As for `CC(=O)Nc1ccc(O)cc1` [ACETAMINOPHEN], the Kd on Cytochrome P450 2B1 came to 800 µM; on Cytochrome P450 1A1 it was 870 µM.
